{"source": "paper PMC5218480", "about": "(PLoS ONE, 2017)", "test_system": "MV-4-11 cells", "test": "Gene expression microarray analysis (Affymetrix PrimeView) and GSEA", "type": "cell-based, human", "parameters": "RFU PODN (11730768_x_at) / Fold change /veh PODN (11730768_x_at) / RFU LINC00158 (11744669_a_at) / Fold change /veh LINC00158 (11744669_a_at) / RFU DUSP10 (11751237_a_at) / Fold change /veh DUSP10 (11751237_a_at) / RFU ID3 (11757404_x_at) / Fold change /veh ID3 (11757404_x_at) / RFU PLEKHG5 (11737974_s_at) / Fold change /veh PLEKHG5 (11737974_s_at) / RFU LRRC4B (11730491_at) / Fold change /veh LRRC4B (11730491_at) / RFU GIMAP4 (11747438_a_at) / Fold change /veh GIMAP4 (11747438_a_at) / RFU KRT8 (11758183_x_at) / Fold change /veh KRT8 (11758183_x_at) / RFU CNN1 (11734310_a_at) / Fold change /veh CNN1 (11734310_a_at) / RFU VPS37D (11726825_at) / Fold change /veh VPS37D (11726825_at) / RFU C10orf10 (11716522_x_at) / Fold change /veh C10orf10 (11716522_x_at) / RFU KIR2DL2 /// KIR2DL4 /// KIR2DL5A /// KIR2DL5B /// KIR2DS1 /// KIR2DS2 /// KIR2DS3 /// KIR2DS4 /// KIR3DL3 /// KIR3DL3 /// KIR3DS1 (11738374_at) / Fold change /veh KIR2DL2 /// KIR2DL4 /// KIR2DL5A /// KIR2DL5B /// KIR2DS1 /// KIR2DS2 /// KIR2DS3 /// KIR2DS4 /// KIR3DL3 /// KIR3DL3 /// KIR3DS1 (11738374_at) / RFU C1QL1 (11718748_at) / Fold change /veh C1QL1 (11718748_at) / RFU TMPRSS4 (11747572_a_at) / Fold change /veh TMPRSS4 (11747572_a_at) / RFU HAMP (11756126_x_at) / Fold change /veh HAMP (11756126_x_at) / RFU RNFT2 (11725882_a_at) / Fold change /veh RNFT2 (11725882_a_at) / RFU NR4A2 (11747474_a_at) / Fold change /veh NR4A2 (11747474_a_at) / RFU ABCC12 (11746883_a_at) / Fold change /veh ABCC12 (11746883_a_at) / RFU TMEM136 (11760407_x_at) / Fold change /veh TMEM136 (11760407_x_at) / RFU CLDN22 /// WWC2 (11732394_at) / Fold change /veh CLDN22 /// WWC2 (11732394_at) / RFU HLA-DPB1 (11760878_x_at) / Fold change /veh HLA-DPB1 (11760878_x_at) / RFU SPINT1 (11716480_a_at) / Fold change /veh SPINT1 (11716480_a_at) / RFU GAP43 (11754022_s_at) / Fold change /veh GAP43 (11754022_s_at) / RFU A4GNT (11735810_at) / Fold change /veh A4GNT (11735810_at) / RFU PRB3 (11715151_x_at) / Fold change /veh PRB3 (11715151_x_at) / RFU TUBB4B (11761932_at) / Fold change /veh TUBB4B (11761932_at) / RFU CAPN14 (11732068_a_at) / Fold change /veh CAPN14 (11732068_a_at) / RFU TMCC2 (11721928_a_at) / Fold change /veh TMCC2 (11721928_a_at) / RFU IRGQ (11745062_a_at) / Fold change /veh IRGQ (11745062_a_at) / RFU FAM174B (11720279_a_at) / Fold change /veh FAM174B (11720279_a_at) / RFU TMPRSS4 (11748680_a_at) / Fold change /veh TMPRSS4 (11748680_a_at) / RFU FAM212B (11763350_a_at) / Fold change /veh FAM212B (11763350_a_at) / RFU PLEKHG5 (11743358_a_at) / Fold change /veh PLEKHG5 (11743358_a_at) / RFU ZSCAN30 (11745921_a_at) / Fold change /veh ZSCAN30 (11745921_a_at) / RFU CMKLR1 (11741424_a_at) / Fold change /veh CMKLR1 (11741424_a_at) / RFU LOC101060620 /// MAPK8IP1 (11723275_at) / Fold change /veh LOC101060620 /// MAPK8IP1 (11723275_at) / RFU SPTSSB (11747773_x_at) / Fold change /veh SPTSSB (11747773_x_at) / RFU PRSS12 (11739890_at) / Fold change /veh PRSS12 (11739890_at) / RFU BIN1 (11741810_x_at) / Fold change /veh BIN1 (11741810_x_at) / RFU WNT11 (11732464_a_at) / Fold change /veh WNT11 (11732464_a_at) / RFU C10orf10 (11716521_a_at) / Fold change /veh C10orf10 (11716521_a_at) / RFU C5orf56 (11738089_at) / Fold change /veh C5orf56 (11738089_at) / RFU CYB561 (11721691_x_at) / Fold change /veh CYB561 (11721691_x_at) / RFU ANKRD19P (11752326_a_at) / Fold change /veh ANKRD19P (11752326_a_at) / RFU OR2T12 /// OR2T33 /// OR2T8 (11738714_s_at) / Fold change /veh OR2T12 /// OR2T33 /// OR2T8 (11738714_s_at) / RFU VCAN (11748164_a_at) / Fold change /veh VCAN (11748164_a_at) / RFU JSRP1 (11732532_at) / Fold change /veh JSRP1 (11732532_at) / RFU KRTAP10-11 (11738290_x_at) / Fold change /veh KRTAP10-11 (11738290_x_at) / RFU MYO3A (11730013_a_at) / Fold change /veh MYO3A (11730013_a_at) / RFU EBF3 (11725865_a_at) / Fold change /veh EBF3 (11725865_a_at) / RFU CAMK2N1 (11719241_x_at) / Fold change /veh CAMK2N1 (11719241_x_at) / RFU C5orf56 (11738088_a_at) / Fold change /veh C5orf56 (11738088_a_at) / RFU OLFML3 (11715873_a_at) / Fold change /veh OLFML3 (11715873_a_at) / RFU LOC100653217 /// NTM (11731650_a_at) / Fold change /veh LOC100653217 /// NTM (11731650_a_at) / RFU MAPK11 (11762145_a_at) / Fold change /veh MAPK11 (11762145_a_at) / RFU FIZ1 (11724087_x_at) / Fold change /veh FIZ1 (11724087_x_at) / RFU OASL (11726364_x_at) / Fold change /veh OASL (11726364_x_at) / RFU SOX15 (11748057_x_at) / Fold change /veh SOX15 (11748057_x_at) / RFU CD79A (11719716_a_at) / Fold change /veh CD79A (11719716_a_at) / RFU HIST1H1D (11736915_at) / Fold change /veh HIST1H1D (11736915_at) / RFU CASKIN2 (11723855_a_at) / Fold change /veh CASKIN2 (11723855_a_at) / RFU LOC730098 (11760151_x_at) / Fold change /veh LOC730098 (11760151_x_at) / RFU OR4N2 (11742367_at) / Fold change /veh OR4N2 (11742367_at) / RFU PRRT2 (11749266_a_at) / Fold change /veh PRRT2 (11749266_a_at) / RFU SNX32 (11753110_a_at) / Fold change /veh SNX32 (11753110_a_at) / RFU CDHR5 (11726645_a_at) / Fold change /veh CDHR5 (11726645_a_at) / RFU RCAN1 (11760418_a_at) / Fold change /veh RCAN1 (11760418_a_at) / RFU FAM167A (11723789_a_at) / Fold change /veh FAM167A (11723789_a_at) / RFU FAM26E (11764081_at) / Fold change /veh FAM26E (11764081_at) / RFU ISYNA1 (11749810_s_at) / Fold change /veh ISYNA1 (11749810_s_at) / RFU ACY1 (11761880_at) / Fold change /veh ACY1 (11761880_at) / RFU 11764098_at / Fold change /veh 11764098_at / RFU SAMD14 (11745864_x_at) / Fold change /veh SAMD14 (11745864_x_at) / RFU NPB (11741838_a_at) / Fold change /veh NPB (11741838_a_at) / RFU TMPRSS6 (11731388_a_at) / Fold change /veh TMPRSS6 (11731388_a_at) / RFU KRTAP10-2 (11738614_at) / Fold change /veh KRTAP10-2 (11738614_at) / RFU ARHGAP8 /// PRR5-ARHGAP8 (11727945_x_at) / Fold change /veh ARHGAP8 /// PRR5-ARHGAP8 (11727945_x_at) / RFU KRTAP5-7 /// NADSYN1 (11734609_at) / Fold change /veh KRTAP5-7 /// NADSYN1 (11734609_at) / RFU RASL12 (11751679_a_at) / Fold change /veh RASL12 (11751679_a_at) / RFU CDKN2B (11736163_a_at) / Fold change /veh CDKN2B (11736163_a_at) / RFU PRF1 (11729649_at) / Fold change /veh PRF1 (11729649_at) / RFU, ZNF638 /// ZNF638-IT1 / Fold change vs veh, ZNF638 /// ZNF638-IT1 / RFU, PANK3 / Fold change vs veh, PANK3 / RFU, SH3YL1 / Fold change vs veh, SH3YL1 / RFU, ZEB2 / Fold change vs veh, ZEB2 / RFU, NRIP1 / Fold change vs veh, NRIP1 / RFU, PTTG1IP / Fold change vs veh, PTTG1IP / RFU, CAPN2 / Fold change vs veh, CAPN2 / RFU, MED14 / Fold change vs veh, MED14 / RFU, SNORA58 / Fold change vs veh, SNORA58 / RFU, C1orf63 / Fold change vs veh, C1orf63 / RFU, LRRFIP1 / Fold change vs veh, LRRFIP1 / RFU, NDUFAF7 / Fold change vs veh, NDUFAF7 / RFU, SLC12A2 / Fold change vs veh, SLC12A2 / RFU, IBTK / Fold change vs veh, IBTK / RFU, ESF1 / Fold change vs veh, ESF1 / Fold change vs veh, TMEM50B / RFU, TAOK1 / Fold change vs veh, TAOK1 / RFU, ACBD3 / Fold change vs veh, ACBD3 / RFU, TMA16 / Fold change vs veh, TMA16 / RFU, RWDD3 / Fold change vs veh, RWDD3 / RFU, BCAT1 / Fold change vs veh, BCAT1 / RFU, EDEM3 / Fold change vs veh, EDEM3 / RFU, TMEM33 / Fold change vs veh, TMEM33 / RFU, WDR75 / Fold change vs veh, WDR75 / RFU, AHCTF1 / Fold change vs veh, AHCTF1 / RFU, TFRC / Fold change vs veh, TFRC / RFU, ZDHHC17 / Fold change vs veh, ZDHHC17 / RFU, NOM1 / Fold change vs veh, NOM1 / RFU, ARL8B / Fold change vs veh, ARL8B / RFU, ZBTB11 / Fold change vs veh, ZBTB11 / RFU, TAMM41 / Fold change vs veh, TAMM41 / RFU, KIAA1704 /// LOC100996395 / Fold change vs veh, KIAA1704 /// LOC100996395 / RFU, ING1 / Fold change vs veh, ING1 / RFU, TRMT61B / Fold change vs veh, TRMT61B / RFU, FUBP3 / Fold change vs veh, FUBP3 / RFU, TP53 / Fold change vs veh, TP53 / RFU, TNKS2 / Fold change vs veh, TNKS2 / RFU, ZFP14 / Fold change vs veh, ZFP14 / RFU, ACTR2 / Fold change vs veh, ACTR2 / RFU, PPP3R1 / Fold change vs veh, PPP3R1 / RFU, PIK3R1 / Fold change vs veh, PIK3R1 / RFU, HNRNPA1 / Fold change vs veh, HNRNPA1 / RFU, RNF170 / Fold change vs veh, RNF170 / RFU, ZNF28 / Fold change vs veh, ZNF28 / RFU, RNGTT / Fold change vs veh, RNGTT / RFU, OGT / Fold change vs veh, OGT / RFU, BRD1 / Fold change vs veh, BRD1 / RFU, MARS / Fold change vs veh, MARS / RFU, ZNF655 / Fold change vs veh, ZNF655 / RFU, FAHD1 / Fold change vs veh, FAHD1 / RFU, BDP1 / Fold change vs veh, BDP1 / RFU, LRRCC1 / Fold change vs veh, LRRCC1 / RFU, ARID1A / Fold change vs veh, ARID1A / RFU, ZNF146 / Fold change vs veh, ZNF146 / RFU, ZNF330 / Fold change vs veh, ZNF330 / RFU, GPN3 / Fold change vs veh, GPN3 / RFU, C9orf123 / Fold change vs veh, C9orf123 / RFU, N4BP2L2 / Fold change vs veh, N4BP2L2 / RFU, ARFIP1 / Fold change vs veh, ARFIP1 / RFU, FAM179B / Fold change vs veh, FAM179B / RFU, BCL10 / Fold change vs veh, BCL10 / RFU, UHRF1BP1L / Fold change vs veh, UHRF1BP1L / RFU, BET1 / Fold change vs veh, BET1 / RFU, CNOT2 / Fold change vs veh, CNOT2 / RFU, ZNF268 / Fold change vs veh, ZNF268 / Fold change vs veh, ZNF507 / RFU, DGCR2 / Fold change vs veh, DGCR2 / RFU, WDSUB1 / Fold change vs veh, WDSUB1 / Fold change vs veh, HSP90B1 /// MIR3652 / RFU, ADSS / Fold change vs veh, ADSS / RFU, GK / Fold change vs veh, GK / RFU, ZNF148 / Fold change vs veh, ZNF148 / RFU, TAF9 / Fold change vs veh, TAF9 / RFU, SLC1A5 / Fold change vs veh, SLC1A5 / RFU, SLMO2 / Fold change vs veh, SLMO2 / RFU, ABCC4 / Fold change vs veh, ABCC4 / RFU, LOC101060439 /// RAP1B / Fold change vs veh, LOC101060439 /// RAP1B / RFU, RFX7 / Fold change vs veh, RFX7 / RFU, GTPBP10 / Fold change vs veh, GTPBP10 / RFU, CNEP1R1 / Fold change vs veh, CNEP1R1 / RFU, BIVM-ERCC5 /// ERCC5 / Fold change vs veh, BIVM-ERCC5 /// ERCC5 / RFU, ILF3 / Fold change vs veh, ILF3 / RFU 11762660_at / Fold change /veh 11762660_at / RFU VCAN (11757783_s_at) / Fold change /veh VCAN (11757783_s_at) / RFU DDX43 (11728927_at) / Fold change /veh DDX43 (11728927_at) / RFU KRT8 (11758188_x_at) / Fold change /veh KRT8 (11758188_x_at) / RFU NKD1 (11759106_at) / Fold change /veh NKD1 (11759106_at) / RFU SRD5A1 (11742802_a_at) / Fold change /veh SRD5A1 (11742802_a_at) / RFU TPSAB1 /// TPSB2 (11721975_s_at) / Fold change /veh TPSAB1 /// TPSB2 (11721975_s_at) / RFU GSTM3 (11746129_a_at) / Fold change /veh GSTM3 (11746129_a_at) / RFU IL23R (11737362_x_at) / Fold change /veh IL23R (11737362_x_at) / RFU TMEM51 (11727254_a_at) / Fold change /veh TMEM51 (11727254_a_at) / RFU PIWIL2 (11732686_x_at) / Fold change /veh PIWIL2 (11732686_x_at) / RFU ORM1 (11744905_x_at) / Fold change /veh ORM1 (11744905_x_at) / RFU CCDC152 (11743942_at) / Fold change /veh CCDC152 (11743942_at) / RFU ECM1 (11717891_a_at) / Fold change /veh ECM1 (11717891_a_at) / RFU IL23R (11748794_a_at) / Fold change /veh IL23R (11748794_a_at) / RFU TNFAIP8L3 (11732012_x_at) / Fold change /veh TNFAIP8L3 (11732012_x_at) / RFU MBOAT4 (11741988_at) / Fold change /veh MBOAT4 (11741988_at) / RFU 11764193_at / Fold change /veh 11764193_at / RFU TMEM53 (11763286_at) / Fold change /veh TMEM53 (11763286_at) / RFU MAGEB2 (11727129_at) / Fold change /veh MAGEB2 (11727129_at) / RFU TMEM200A (11744735_a_at) / Fold change /veh TMEM200A (11744735_a_at) / RFU CCDC152 (11751479_a_at) / Fold change /veh CCDC152 (11751479_a_at) / RFU FAM211A (11726209_a_at) / Fold change /veh FAM211A (11726209_a_at) / RFU RGS16 (11746705_a_at) / Fold change /veh RGS16 (11746705_a_at) / RFU VCAN (11755009_s_at) / Fold change /veh VCAN (11755009_s_at) / RFU RHOB (11743442_s_at) / Fold change /veh RHOB (11743442_s_at) / RFU RGS16 (11720943_a_at) / Fold change /veh RGS16 (11720943_a_at) / RFU RGS16 (11720944_at) / Fold change /veh RGS16 (11720944_at) / RFU, VPS4B / Fold change vs veh, VPS4B / RFU, CREB1 / Fold change vs veh, CREB1 / RFU, DNAJC13 / Fold change vs veh, DNAJC13 / RFU, GNAQ / Fold change vs veh, GNAQ / RFU, CDK5R1 / Fold change vs veh, CDK5R1 / RFU, ZRANB3 / Fold change vs veh, ZRANB3 / RFU, CUL4A / Fold change vs veh, CUL4A / RFU, CCNY / Fold change vs veh, CCNY / RFU, UFL1 / Fold change vs veh, UFL1 / RFU, COG3 / Fold change vs veh, COG3 / RFU, DIAPH2 / Fold change vs veh, DIAPH2 / RFU, SKA2 / Fold change vs veh, SKA2 / RFU, AFF3 / Fold change vs veh, AFF3 / RFU, LMF1 / Fold change vs veh, LMF1 / RFU, IPO11 / Fold change vs veh, IPO11 / RFU, DFFB / Fold change vs veh, DFFB / RFU, FOXP1 / Fold change vs veh, FOXP1 / RFU, CARD8 / Fold change vs veh, CARD8 / RFU, STRN3 / Fold change vs veh, STRN3 / RFU, ADK / Fold change vs veh, ADK / RFU, RASSF2 / Fold change vs veh, RASSF2 / RFU, WIPF1 / Fold change vs veh, WIPF1 / RFU, LARP1B / Fold change vs veh, LARP1B / RFU, RASA1 / Fold change vs veh, RASA1 / RFU, RB1 / Fold change vs veh, RB1 / RFU, PPFIA1 / Fold change vs veh, PPFIA1 / RFU, MAT2A / Fold change vs veh, MAT2A / RFU, CCT5 / Fold change vs veh, CCT5 / RFU, WDR92 / Fold change vs veh, WDR92 / RFU, CUX1 / Fold change vs veh, CUX1 / RFU, TTC7A / Fold change vs veh, TTC7A / RFU, TMEM135 / Fold change vs veh, TMEM135 / RFU, DEPTOR / Fold change vs veh, DEPTOR / RFU, CPM / Fold change vs veh, CPM / RFU, DNAJB6 / Fold change vs veh, DNAJB6 / RFU, CACNA2D3 / Fold change vs veh, CACNA2D3 / RFU, DTX4 / Fold change vs veh, DTX4 / RFU, TFCP2 / Fold change vs veh, TFCP2 / RFU, GMCL1 /// GMCL1P1 / Fold change vs veh, GMCL1 /// GMCL1P1 / RFU, AEBP2 / Fold change vs veh, AEBP2 / RFU, SNHG1 /// SNORD22 /// SNORD25 /// SNORD26 /// SNORD27 /// SNORD28 /// SNORD29 /// SNORD31 / Fold change vs veh, SNHG1 /// SNORD22 /// SNORD25 /// SNORD26 /// SNORD27 /// SNORD28 /// SNORD29 /// SNORD31 / Fold change (Aza/veh), C12orf56 (ProbeSet 11735607_a_at) / Fold change (ACY-1035/veh), C12orf56 (ProbeSet 11735607_a_at) / Fold change (Aza/veh), FGFR1OP (ProbeSet 11751329_s_at) / Fold change (ACY-1035/veh), FGFR1OP (ProbeSet 11751329_s_at) / Fold change (Aza/veh), VPS36 (ProbeSet 11739960_a_at) / Fold change (ACY-1035/veh), VPS36 (ProbeSet 11739960_a_at) / RFU SYPL1 (11715823_x_at) / Fold change /veh SYPL1 (11715823_x_at) / RFU IGFBP7 (11715501_s_at) / Fold change /veh IGFBP7 (11715501_s_at) / RFU REEP3 (11722064_at) / Fold change /veh REEP3 (11722064_at) / RFU IGLL1 (11728026_x_at) / Fold change /veh IGLL1 (11728026_x_at): dose or concentration left out as unconfirmed", "conditions": "MV-4-11 cells, 48 hours"}
{"smiles": "Nc1ncn([C@@H]2O[C@H](CO)[C@@H](O)[C@H]2O)c(=O)n1", "note": "[azacitidine]", "values": [{"measurement": "Fold change /veh TMEM53 (11763286_at)", "result": 1.48}]}
